Test results from patent publication US20220281848A1, “PYRAZOLE-SUBSTITUTED PYRROLIDINONES AS HERBICIDES” (FMC Corporation, priority 2019, published 2022).

Legend:
Format in all cases: in vivo
Settings in all cases: after 13 d
[1] = tested on: ivy-leaved morning glory (Ipomoea hederacea, IPOHE); assay: Test A post-emergence, ivy-leaved morning glory
Outline: (§1)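 Plants were grown 8 d in a glasshouse (24/16° C day/night, 14 h light, 65% humidity), then sprayed post-emergence at 15.625, 62.5 or 250 g/ha in acetone/water (50:50) with 0.5% Tween 20. Damage was scored visually after 13 d (0 = none, 100 = total).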

[2] = tested on: ivy-leaved morning glory (Ipomoea hederacea, IPOHE); assay: Test A pre-emergence, ivy-leaved morning glory
Outline: (§2)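 Pots of soil sown, sprayed at day 1 post-sowing: test compound at 15.625/62.5/250 g/ha in acetone:water 1:1 + 0.5% Tween 20. Glasshouse 24/16° C., 14 h light, 65% RH, watering twice daily. Readout: % damage after 13 d.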

[3] = tested on: giant foxtail (Setaria faberi, SETFA); assay: Test A pre-emergence, giant foxtail
Outline: as §2

[4] = tested on: giant foxtail (Setaria faberi, SETFA); assay: Test A post-emergence, giant foxtail
Outline: as §1

[5] = tested on: velvetleaf (Abutilon theophrasti, ABUTH); assay: Test A post-emergence, velvetleaf
Outline: as §1

[6] = tested on: barnyardgrass (Echinochloa crus-galli, ECHCG); assay: Test A post-emergence, barnyardgrass
Outline: as §1

[7] = tested on: redroot pigweed (Amaranthus retroflexus, AMARE); assay: Test A pre-emergence, redroot pigweed
Outline: as §2

[8] = tested on: barnyardgrass (Echinochloa crus-galli, ECHCG); assay: Test A pre-emergence, barnyardgrass
Outline: as §2

corn (Zea mays, ZEAMX) [9] = assay: Test A pre-emergence, corn
Outline: as §2

[10] = tested on: velvetleaf (Abutilon theophrasti, ABUTH); assay: Test A pre-emergence, velvetleaf
Outline: as §2

[11] = tested on: redroot pigweed (Amaranthus retroflexus, AMARE); assay: Test A post-emergence, redroot pigweed
Outline: as §1

corn (Zea mays, ZEAMX) [12] = assay: Test A post-emergence, corn
Outline: as §1

Compound	damage to plant (100=total damage; 0=no damage) IPOHE ([1]; Post-Emergence at 15.625 g/ha)	damage to plant (100=total damage; 0=no damage) IPOHE ([1]; Post-Emergence at 62.5 g/ha)	damage to plant (100=total damage; 0=no damage) IPOHE ([2]; Pre-Emergence at 15.625 g/ha)	damage to plant (100=total damage; 0=no damage) IPOHE ([2]; Pre-Emergence at 62.5 g/ha)	damage to plant (100=total damage; 0=no damage) SETFA ([3]; Pre-Emergence at 15.625 g/ha)	damage to plant (100=total damage; 0=no damage) SETFA ([3]; Pre-Emergence at 62.5 g/ha)	damage to plant (100=total damage; 0=no damage) SETFA ([4]; Post-Emergence at 15.625 g/ha)	damage to plant (100=total damage; 0=no damage) SETFA ([4]; Post-Emergence at 62.5 g/ha)	damage to plant (100=total damage; 0=no damage) ABUTH ([5]; Post-Emergence at 15.625 g/ha)	damage to plant (100=total damage; 0=no damage) ABUTH ([5]; Post-Emergence at 62.5 g/ha)	damage to plant (100=total damage; 0=no damage) ECHCG ([6]; Post-Emergence at 15.625 g/ha)	damage to plant (100=total damage; 0=no damage) ECHCG ([6]; Post-Emergence at 62.5 g/ha)	damage to plant (100=total damage; 0=no damage) AMARE ([7]; Pre-Emergence at 15.625 g/ha)	damage to plant (100=total damage; 0=no damage) AMARE ([7]; Pre-Emergence at 62.5 g/ha)	damage to plant (100=total damage; 0=no damage) ECHCG ([8]; Pre-Emergence at 15.625 g/ha)	damage to plant (100=total damage; 0=no damage) ECHCG ([8]; Pre-Emergence at 62.5 g/ha)	damage to plant (100=total damage; 0=no damage) ZEAMX (corn (Zea mays, ZEAMX) [9]; Pre-Emergence at 15.625 g/ha)	damage to plant (100=total damage; 0=no damage) ZEAMX (corn (Zea mays, ZEAMX) [9]; Pre-Emergence at 62.5 g/ha)	damage to plant (100=total damage; 0=no damage) ABUTH ([10]; Pre-Emergence at 15.625 g/ha)	damage to plant (100=total damage; 0=no damage) ABUTH ([10]; Pre-Emergence at 62.5 g/ha)	other results
CN1CC(c2nn(C)c(Cl)c2Br)C(C(=O)Nc2ccc(F)c(F)c2F)C1=O (racemic) [Compound 32]	0	0	0	0	20	60	20	60	0	0	10	40	0	0	30	50	0	10	0	0	damage to plant (100=total damage; 0=no damage) IPOHE ([1]; Post-Emergence at 250 g/ha): 10; damage to plant (100=total damage; 0=no damage) IPOHE ([2]; Pre-Emergence at 250 g/ha): 10; damage to plant (100=total damage; 0=no damage) SETFA ([3]; Pre-Emergence at 250 g/ha): 90; damage to plant (100=total damage; 0=no damage) SETFA ([4]; Post-Emergence at 250 g/ha): 80; damage to plant (100=total damage; 0=no damage) ABUTH ([5]; Post-Emergence at 250 g/ha): 0; damage to plant (100=total damage; 0=no damage) ECHCG ([6]; Post-Emergence at 250 g/ha): 80; damage to plant (100=total damage; 0=no damage) AMARE ([7]; Pre-Emergence at 250 g/ha): 0; damage to plant (100=total damage; 0=no damage) ECHCG ([8]; Pre-Emergence at 250 g/ha): 70; damage to plant (100=total damage; 0=no damage) ZEAMX (corn (Zea mays, ZEAMX) [9]; Pre-Emergence at 250 g/ha): 10; damage to plant (100=total damage; 0=no damage) ABUTH ([10]; Pre-Emergence at 250 g/ha): 0; damage to plant (100=total damage; 0=no damage) AMARE ([11]; Post-Emergence at 15.625 g/ha): 0; damage to plant (100=total damage; 0=no damage) AMARE ([11]; Post-Emergence at 62.5 g/ha): 0; damage to plant (100=total damage; 0=no damage) AMARE ([11]; Post-Emergence at 250 g/ha): 0; damage to plant (100=total damage; 0=no damage) ZEAMX (corn (Zea mays, ZEAMX) [12]; Post-Emergence at 15.625 g/ha): 0; damage to plant (100=total damage; 0=no damage) ZEAMX (corn (Zea mays, ZEAMX) [12]; Post-Emergence at 62.5 g/ha): 0; damage to plant (100=total damage; 0=no damage) ZEAMX (corn (Zea mays, ZEAMX) [12]; Post-Emergence at 250 g/ha): 10
Cn1nc([C@H]2CNC(=O)[C@@H]2C(=O)Nc2cccc(F)n2)cc1C(C)(C)C [Compound 1]	0	0	0	0	0	0	0	0	0	0	0	0	0	0	0	0	0	0	0	0	damage to plant (100=total damage; 0=no damage) AMARE ([11]; Post-Emergence at 15.625 g/ha): 0; damage to plant (100=total damage; 0=no damage) AMARE ([11]; Post-Emergence at 62.5 g/ha): 0; damage to plant (100=total damage; 0=no damage) ZEAMX (corn (Zea mays, ZEAMX) [12]; Post-Emergence at 15.625 g/ha): 0; damage to plant (100=total damage; 0=no damage) ZEAMX (corn (Zea mays, ZEAMX) [12]; Post-Emergence at 62.5 g/ha): 0
CN1C[C@H](c2nn(C)c3c(Cl)cccc23)[C@@H](C(=O)Nc2cccc(F)c2F)C1=O [Compound 5]	0	0	0	0	0	30	10	50	0	0	0	60	0	0	0	20	0	0	0	0	damage to plant (100=total damage; 0=no damage) IPOHE ([1]; Post-Emergence at 250 g/ha): 0; damage to plant (100=total damage; 0=no damage) IPOHE ([2]; Pre-Emergence at 250 g/ha): 0; damage to plant (100=total damage; 0=no damage) SETFA ([3]; Pre-Emergence at 250 g/ha): 80; damage to plant (100=total damage; 0=no damage) SETFA ([4]; Post-Emergence at 250 g/ha): 80; damage to plant (100=total damage; 0=no damage) ABUTH ([5]; Post-Emergence at 250 g/ha): 0; damage to plant (100=total damage; 0=no damage) ECHCG ([6]; Post-Emergence at 250 g/ha): 80; damage to plant (100=total damage; 0=no damage) AMARE ([7]; Pre-Emergence at 250 g/ha): 30; damage to plant (100=total damage; 0=no damage) ECHCG ([8]; Pre-Emergence at 250 g/ha): 80; damage to plant (100=total damage; 0=no damage) ZEAMX (corn (Zea mays, ZEAMX) [9]; Pre-Emergence at 250 g/ha): 0; damage to plant (100=total damage; 0=no damage) ABUTH ([10]; Pre-Emergence at 250 g/ha): 10; damage to plant (100=total damage; 0=no damage) AMARE ([11]; Post-Emergence at 15.625 g/ha): 0; damage to plant (100=total damage; 0=no damage) AMARE ([11]; Post-Emergence at 62.5 g/ha): 0; damage to plant (100=total damage; 0=no damage) AMARE ([11]; Post-Emergence at 250 g/ha): 0; damage to plant (100=total damage; 0=no damage) ZEAMX (corn (Zea mays, ZEAMX) [12]; Post-Emergence at 15.625 g/ha): 0; damage to plant (100=total damage; 0=no damage) ZEAMX (corn (Zea mays, ZEAMX) [12]; Post-Emergence at 62.5 g/ha): 0; damage to plant (100=total damage; 0=no damage) ZEAMX (corn (Zea mays, ZEAMX) [12]; Post-Emergence at 250 g/ha): 0
CCn1nc([C@H]2CN(C)C(=O)[C@@H]2C(=O)Nc2ccc(F)nc2F)c2cccc(F)c21 [Compound 11]	0	0	0	0	80	90	60	80	0	0	50	90	0	0	20	90	0	0	0	0	damage to plant (100=total damage; 0=no damage) IPOHE ([1]; Post-Emergence at 250 g/ha): 0; damage to plant (100=total damage; 0=no damage) IPOHE ([2]; Pre-Emergence at 250 g/ha): 10; damage to plant (100=total damage; 0=no damage) SETFA ([3]; Pre-Emergence at 250 g/ha): 90; damage to plant (100=total damage; 0=no damage) SETFA ([4]; Post-Emergence at 250 g/ha): 80; damage to plant (100=total damage; 0=no damage) ABUTH ([5]; Post-Emergence at 250 g/ha): 0; damage to plant (100=total damage; 0=no damage) ECHCG ([6]; Post-Emergence at 250 g/ha): 90; damage to plant (100=total damage; 0=no damage) AMARE ([7]; Pre-Emergence at 250 g/ha): 0; damage to plant (100=total damage; 0=no damage) ECHCG ([8]; Pre-Emergence at 250 g/ha): 90; damage to plant (100=total damage; 0=no damage) ZEAMX (corn (Zea mays, ZEAMX) [9]; Pre-Emergence at 250 g/ha): 20; damage to plant (100=total damage; 0=no damage) ABUTH ([10]; Pre-Emergence at 250 g/ha): 0; damage to plant (100=total damage; 0=no damage) AMARE ([11]; Post-Emergence at 15.625 g/ha): 0; damage to plant (100=total damage; 0=no damage) AMARE ([11]; Post-Emergence at 62.5 g/ha): 0; damage to plant (100=total damage; 0=no damage) AMARE ([11]; Post-Emergence at 250 g/ha): 0; damage to plant (100=total damage; 0=no damage) ZEAMX (corn (Zea mays, ZEAMX) [12]; Post-Emergence at 15.625 g/ha): 10; damage to plant (100=total damage; 0=no damage) ZEAMX (corn (Zea mays, ZEAMX) [12]; Post-Emergence at 62.5 g/ha): 10; damage to plant (100=total damage; 0=no damage) ZEAMX (corn (Zea mays, ZEAMX) [12]; Post-Emergence at 250 g/ha): 40
CN1CC(c2cc(C(F)(F)F)n(C)n2)C(C(=O)Nc2cccc(F)c2F)C1=O (stereo not drawn) [Compound 12]	0	0	0	0	0	0	0	0	0	0	0	0	0	0	0	0	0	0	0	0	damage to plant (100=total damage; 0=no damage) IPOHE ([1]; Post-Emergence at 250 g/ha): 0; damage to plant (100=total damage; 0=no damage) IPOHE ([2]; Pre-Emergence at 250 g/ha): 20; damage to plant (100=total damage; 0=no damage) SETFA ([3]; Pre-Emergence at 250 g/ha): 0; damage to plant (100=total damage; 0=no damage) SETFA ([4]; Post-Emergence at 250 g/ha): 0; damage to plant (100=total damage; 0=no damage) ABUTH ([5]; Post-Emergence at 250 g/ha): 0; damage to plant (100=total damage; 0=no damage) ECHCG ([6]; Post-Emergence at 250 g/ha): 0; damage to plant (100=total damage; 0=no damage) AMARE ([7]; Pre-Emergence at 250 g/ha): 10; damage to plant (100=total damage; 0=no damage) ECHCG ([8]; Pre-Emergence at 250 g/ha): 10; damage to plant (100=total damage; 0=no damage) ZEAMX (corn (Zea mays, ZEAMX) [9]; Pre-Emergence at 250 g/ha): 20; damage to plant (100=total damage; 0=no damage) ABUTH ([10]; Pre-Emergence at 250 g/ha): 0; damage to plant (100=total damage; 0=no damage) AMARE ([11]; Post-Emergence at 15.625 g/ha): 0; damage to plant (100=total damage; 0=no damage) AMARE ([11]; Post-Emergence at 62.5 g/ha): 0; damage to plant (100=total damage; 0=no damage) AMARE ([11]; Post-Emergence at 250 g/ha): 0; damage to plant (100=total damage; 0=no damage) ZEAMX (corn (Zea mays, ZEAMX) [12]; Post-Emergence at 15.625 g/ha): 0; damage to plant (100=total damage; 0=no damage) ZEAMX (corn (Zea mays, ZEAMX) [12]; Post-Emergence at 62.5 g/ha): 0; damage to plant (100=total damage; 0=no damage) ZEAMX (corn (Zea mays, ZEAMX) [12]; Post-Emergence at 250 g/ha): 0
